Non-standard residues stand in square brackets, D forms with d. Residues, ends and D or L forms follow the SMILES beside them. No end group written: not given here. hArg = N=C(N)NCCCC[C@H](N)C(=O)O; dNle = CCCC[C@@H](N)C(=O)O

Sequence of hNMUR2 (Q9GZQ4 whole entry): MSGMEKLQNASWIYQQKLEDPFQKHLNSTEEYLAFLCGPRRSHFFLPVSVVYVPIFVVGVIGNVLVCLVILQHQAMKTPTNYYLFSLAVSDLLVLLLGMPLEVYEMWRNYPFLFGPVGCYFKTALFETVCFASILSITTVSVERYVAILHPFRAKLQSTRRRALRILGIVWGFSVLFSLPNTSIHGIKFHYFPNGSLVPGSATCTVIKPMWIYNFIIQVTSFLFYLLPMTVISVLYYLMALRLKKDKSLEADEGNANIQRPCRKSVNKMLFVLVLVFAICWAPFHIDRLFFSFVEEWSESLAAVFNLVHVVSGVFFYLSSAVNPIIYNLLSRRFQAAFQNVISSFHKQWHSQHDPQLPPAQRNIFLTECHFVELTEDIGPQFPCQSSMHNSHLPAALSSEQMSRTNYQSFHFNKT

The target of one assay is hNMUR2 (Homo sapiens, UniProt Q9GZQ4). In words: In vitro functional assay, HEK-hR2 cells. To be noted: Table 8, HEK-hR2, functional. Further details: expressed in transfected cells; host or cells: FLP-In CHO or HEK-293 FLP-In cells (pcDNA5); HEK-293/aeq17 lines (pcDNA3.1) were also made; % Activity: concentration or dose not given beside the values. It is filed as cell-based. From the text:
Human, mouse or rat cDNAs encoding NMUR1 or NMUR2 (as described in Howard et al. Nature 406: 70-74 (2000) were subcloned in pcDNA5 (Invitrogen) and transfected into FLP-In CHO cells and HEK-293 FLP-In cells purchased from Invitrogen (Carlsbad, Calif.) using lipofectamine (Invitrogen). The Flp-In system allows integration and expression of a particular gene of interest at a specific genomic location utilizing the Flp recombinase from yeast. The transfected cells were selected by growth in medium containing 200 μg/mL hygromycin (Invitrogen). Populations were frozen at early passage numbers, and these stocks were used for further studies. Stable clones that expressed the mRNAs were identified functionally by FLIPR as well as by RT-PCR. […] Two different rodent NMUR1 cell lines were thus generated: one with the codon as predicted from the genomic databases and another cell line with an engineered methionine (ATG) as the start codon. Additionally, stable cell lines expressing the human receptors were generated in HEK-293/aeq17 cells which stably express the aequorin gene under the CMV promoter. The human NMUR2 cDNA was cloned into pcDNA3.1 and human NMUR1 was subcloned into pIRES-puro (Clontech, Mountain View, Calif.), after transfection cells were selected in media containing G418 and either hygromycin (NMUR2) or puromycin (NMUR1).
The NMU receptors signal primarily through Gαq/11 proteins; therefore calcium mobilization assays can be utilized for functional activity.
Stable cell lines expressing human and or rodent NMUR1 or human NMUR2 receptors were plated at a density of 12,000 cells per well overnight on poly-lysine coated 384-well black-walled plates. The following day, the media was removed from the plates and the cells were subsequently loaded with Fluo-3 (Molecular Probes), a calcium sensitive dye, diluted in FLIPR buffer (1× Hank's buffered saline containing 20 mM HEPES, 0.1% BSA, 2.5 mM probenecid (Sigma) and 1.6 mM TR40). All reagents are from Invitrogen unless otherwise noted. Peptide stocks were resuspended in DMSO at a stock concentration of 2 mM and diluted in FLIPR buffer on the day of the experiment to a 4 μM working stock solution.
After a 90 minute incubation at room-temperature, cell plates were loaded onto a FLIPR (Molecular Devices) to monitor cellular fluorescence (excitation=488 nm; emission=540 nm) before and after compound/peptide addition. Eight to twelve point dose responses were tested on NMUR-expressing cell lines using FLIPR with 1 μM peptide as the highest dose. The response after peptide addition was taken as the maximum fluorescence units minus the fluorescence immediately prior to stimulation for each well. EC50 values were calculated using GraphPad Prism (San Diego, Calif.) software.
In addition to FLIPR, NMU receptor function can also be evaluated using an aequorin assay. Stable cell lines expressing the aequorin jelly fish gene can be used to report the activation of GPCRs by monitoring intracellular calcium mobilization. The objective is to identify compounds which specifically stimulate aequorin bioluminescence. Calcium-dependent luminescence is generated by the treatment of cells with the coelenterate luciferin, coelenterazine. Briefly, confluent monolayers of HEK-293/aeq 17 cells expressing hNMUR1 or hNMUR2 are “charged” with coelenterazine (Molecular Probes, Carlsbad, Calif.). Confluent T75 flasks are rinsed with media containing 300 μM glutathione and 0.1% FBS. Cells are incubated at 37° C. for one hour in 8 mL media, 0.1% FBS, 300 μM glutathione, and 20 μM coelenterazine. T75 flasks are subsequently rinsed with 6 mL ECB buffer (140 mM NaCl, 20 mM KCl, 20 mM HEPES, 5 mM glucose, 1 mM MgCl, 1 mM CaCl2, 0.1 mg/mL BSA, PH 7.3-7.4). Cells are removed from the flask in ECB buffer, pelleted, and resuspended at a density of 2×10^5 cells/mL. Agonists are added to the cells and activity is determined using a luminometer.
A word on the IC50: it is the concentration at which inhibition is half-maximal. `CC(=O)N[C@@H](Cc1ccccc1)C(=O)N[C@H](CC(C)C)C(=O)N[C@@H](Cc1c[nH]c2ccccc12)C(=O)N[C@@H](CCCNC(=N)N)C(=O)N1CCC[C@H]1C(=O)N[C@@H](CCCNC(=N)N)C(=O)N[C@@H](CC(N)=O)C(N)=O` [Agonist E, Ac-F-(D-L)-WRPRN-CONH2] (Ac-F[dL]WRPRN-NH2): the “% Activity” value was 1.8% and the IC50 was more than 1000 nM.

For H-YFGWRPRN-NH2 [Agonist C], the “% Activity” value was 0% and the IC50 is more than 1000 nM.

Turning to “H-FRVDEEFQSPFASQSRGYFWRPRN-NH2 [Agonist G]”, the “% Activity” value turned out to be 14% and the IC50 is more than 1000 nM.

As for “Ac-FFRPRN-NH2 [Agonist F, Ac-FFRPRN-CONH2]”, the “% Activity” value is reported as 96% and the midpoint of inhibition, the IC50, lay at 870 nM.

On to YFWRPRN-NH2 [Agonist A, YFWRPRN-CONH2], for which the “% Activity” value was found to be 0% and the IC50 is more than 1000 nM.

For the molecule `C[C@@H](NC(=O)[C@H](Cc1ccccc1)NC(=O)[C@@H](N)Cc1ccc(O)cc1)C(=O)N[C@@H](Cc1c[nH]c2ccccc12)C(=O)N[C@@H](CCCNC(=N)N)C(=O)N1CCC[C@H]1C(=O)N[C@@H](CCCNC(=N)N)C(=O)N[C@@H](CC(N)=O)C(N)=O` [Agonist D, YF-(D-A)-WRPRN-CONH2] (H-YF[dA]WRPRN-NH2; N-terminus assumed), the “% Activity” value was 0% and the concentration for half-maximal inhibition (IC50) is more than 1000 nM.

As for `CC(C)C[C@@H](NC(=O)[C@H](Cc1ccccc1)NC(=O)[C@@H](N)Cc1ccc(O)cc1)C(=O)N[C@@H](Cc1c[nH]c2ccccc12)C(=O)N[C@@H](CCCNC(=N)N)C(=O)N1CCC[C@H]1C(=O)N[C@@H](CCCNC(=N)N)C(=O)N[C@@H](CC(N)=O)C(N)=O` [Agonist B, YF-(D-L)-WRPRN-CONH2] (H-YF[dL]WRPRN-NH2), the “% Activity” value amounted to 0% and the IC50 is more than 1000 nM.

The assay is the same for the next values; noted with them: Table 9, HEK-hR2, functional.
On to `CC(C)C[C@H](NC(=O)[C@H](Cc1c[nH]c2ccccc12)NC(=O)[C@H](Cc1ccccc1)NC(=O)CNC(=O)[C@H](CCCNC(=N)N)NC(=O)[C@H](CO)NC(=O)[C@H](CCC(N)=O)NC(=O)[C@H](CO)NC(=O)[C@H](C)NC(=O)[C@H](Cc1ccccc1)NC(=O)[C@@H]1CCCN1C(=O)[C@H](CO)NC(=O)[C@H](CCC(N)=O)NC(=O)[C@H](Cc1ccccc1)NC(=O)[C@H](CCC(=O)O)NC(=O)[C@H](CCC(=O)O)NC(=O)[C@H](CC(=O)O)NC(=O)[C@@H](NC(=O)[C@H](CCCNC(=N)N)NC(=O)[C@@H](N)Cc1ccccc1)C(C)C)C(=O)N[C@@H](Cc1ccccc1)C(=O)N[C@@H](CCCNC(=N)N)C(=O)N[C@@H](C)C(=O)N[C@@H](CCCCNC(=N)N)C(=O)N[C@@H](CC(N)=O)C(N)=O` [Agonist P] (H-FRVDEEFQSPFASQSRGFWLFRA[hArg]N-NH2; N-terminus assumed), for which the “% Activity” value was 100%.

Take `CCCC[C@@H](NC(=O)[C@H](CCCNC(=N)N)NC(=O)[C@@H]1CCCN1C(=O)[C@H](CCCNC(=N)N)NC(=O)[C@H](Cc1ccccc1)NC(=O)[C@H](CC(C)C)NC(=O)[C@H](Cc1c[nH]c2ccccc12)NC(=O)[C@H](Cc1ccccc1)NC(=O)CNC(=O)[C@H](CCCNC(=N)N)NC(=O)[C@H](CO)NC(=O)[C@H](CCC(N)=O)NC(=O)[C@H](CO)NC(=O)[C@H](C)NC(=O)[C@H](Cc1ccccc1)NC(=O)[C@@H]1CCCN1C(=O)[C@H](CO)NC(=O)[C@H](CCC(N)=O)NC(=O)[C@H](Cc1ccccc1)NC(=O)[C@H](CCC(=O)O)NC(=O)[C@H](CCC(=O)O)NC(=O)[C@H](CC(=O)O)NC(=O)[C@@H](NC(=O)[C@H](CCCNC(=N)N)NC(=O)[C@@H](N)Cc1ccccc1)C(C)C)C(N)=O` [Agonist Q] (H-FRVDEEFQSPFASQSRGFWLFRPR[dNle]-NH2): the “% Activity” value was determined as 97%.

In the case of `CC(C)C[C@H](NC(=O)[C@H](Cc1ccccc1)NC(=O)[C@@H](N)Cc1ccc(O)cc1)C(=O)N[C@@H](Cc1ccccc1)C(=O)N[C@@H](CCCNC(=N)N)C(=O)N1CCC[C@H]1C(=O)N[C@@H](CCCNC(=N)N)C(=O)N[C@@H](CC(N)=O)C(N)=O` [NMU-8, reference compound], the “% Activity” value came to 104%.

In the case of `CC(C)C[C@H](NC(=O)[C@H](Cc1c[nH]c2ccccc12)NC(=O)[C@@H](N)Cc1ccccc1)C(=O)N[C@@H](Cc1ccccc1)C(=O)N[C@@H](CCCNC(=N)N)C(=O)N[C@@H](C)C(=O)N[C@@H](CCCCNC(=N)N)C(=O)N[C@@H](CC(N)=O)C(N)=O` [Agonist J, FWLFRA-(Harg)-N-CONH2] (H-FWLFRA[hArg]N-NH2), the “% Activity” value was found to be 59%.

On to H-FWLFRARN-NH2 [Agonist L], for which the “% Activity” value stood at 100%.

The term EC50 denotes the concentration at which the effect is half-maximal. Consider WALFRARN-NH2 [Agonist M], for which the “% Activity” value was 93% and the 50% effective concentration (EC50) is 33 nM.

As for FALFRPRN-NH2 [Agonist N], the “% Activity” value is given as 100%.

For `CC(C)C[C@H](NC(=O)[C@H](Cc1c[nH]c2ccccc12)NC(=O)[C@@H](N)Cc1ccccc1)C(=O)N[C@@H](Cc1ccccc1)C(=O)N[C@@H](CCCNC(=N)N)C(=O)N1CCC[C@H]1C(=O)N[C@@H](CCCCNC(=N)N)C(=O)N[C@@H](CC(N)=O)C(N)=O` [Agonist I, FWLFRP-(Harg)-N-CONH2] (H-FWLFRP[hArg]N-NH2), the “% Activity” value was 99%.

As for `CC(C)C[C@H](NC(=O)[C@H](Cc1c[nH]c2ccccc12)NC(=O)[C@H](Cc1ccccc1)NC(=O)CNC(=O)[C@H](CCCNC(=N)N)NC(=O)[C@H](CO)NC(=O)[C@H](CCC(N)=O)NC(=O)[C@H](CO)NC(=O)[C@H](C)NC(=O)[C@H](Cc1ccccc1)NC(=O)[C@@H]1CCCN1C(=O)[C@H](CO)NC(=O)[C@H](CCC(N)=O)NC(=O)[C@H](Cc1ccccc1)NC(=O)[C@H](CCC(=O)O)NC(=O)[C@H](CCC(=O)O)NC(=O)[C@H](CC(=O)O)NC(=O)[C@@H](NC(=O)[C@H](CCCNC(=N)N)NC(=O)[C@@H](N)Cc1ccccc1)C(C)C)C(=O)N[C@@H](Cc1ccccc1)C(=O)N[C@@H](CCCNC(=N)N)C(=O)N1CCC[C@H]1C(=O)N[C@@H](CCCCNC(=N)N)C(=O)N[C@@H](CC(N)=O)C(N)=O` [Agonist O] (H-FRVDEEFQSPFASQSRGFWLFRP[hArg]N-NH2; N-terminus assumed), the “% Activity” value came out at 67% and the response was half-maximal at 16 nM (EC50).

With `CCCC[C@@H](NC(=O)[C@H](CCCNC(=N)N)NC(=O)[C@H](C)NC(=O)[C@H](CCCNC(=N)N)NC(=O)[C@H](Cc1ccccc1)NC(=O)[C@H](CC(C)C)NC(=O)[C@H](Cc1ccccc1)NC(=O)[C@@H](N)Cc1c[nH]c2ccccc12)C(N)=O` [Agonist K, WFLFRAR-(D-Nle)-CONH2] (H-WFLFRAR[dNle]-NH2), the “% Activity” value worked out at 100% and a half-maximal effect (EC50) was put at 2 nM.
